# From patent publication US6998407B2, “Antagonists of MCP-1 function and methods of use thereof” (Telik, Inc., priority 2001, dated 2006)
# What was measured:
# [1] = system: ICR male mice; experiment: Thioglycollate-induced inflammation model; assay type: in vivo; conditions: peritoneal cavity, 96 h after thioglycollate; 10 mg/kg subcutaneous at 0 h, 3 h and 16 h
# Procedure: 3% Brewer's thioglycollate broth (Difco, Detroit, Mich.) was injected into the peritoneal cavity of ICR male mice, followed by subcutaneous administration of the same dose of test compound after 0 h, 3 h and 16 hours post-thioglycollate injection, respectively. After 96 h, the number of total elicited cells and MOMA2-positive cells in the peritoneal cavity was analyzed using a flowcytometer (EPICS XL, Beckman Coulter).
# [2] = system: male Wistar rats; experiment: Anti-Thy-1 antibody induced nephritis model; assay type: in vivo; conditions: 1 mg/kg subcutaneous, 2 h before, immediately after, 5 h after anti-Thy-1 antibody, then twice a day for 2 days
# Procedure: The efficacy of the compounds of the present invention was also evaluated in an animal model of nephritis. This model simulates very closely the conditions found in human mesangial proliferative glomerulonephritis.
# Anti-Thy-1 nephritis was induced by intravenous injection of anti-Thy-1-antibody to male Wistar rats. The test compound was subcutaneously administered 2 h before, immediately after, and 5 h after the anti-Thy-1 antibody treatment, and then twice a day for the following 2 days. Anti-MCP-1 antibody was intraperitoneally injected once a day for 3 days. Seven days after the anti-Thy-1 antibody treatment, the rats were sacrificed. The kidneys were perfused with 10% formaldehyde in PBS, surgically removed, and immersed in 10% formaldehyde. The kidneys were then embedded in paraffin for glomerular histopathology or in OCT compound Miles Inc., Elkhart, Ind.) in liquid nitrogen after immersion in 30% sucrose overnight. Immunohistochemical staining was performed with a mouse anti-rat ED-1 monoclonal antibody. Briefly, […] renal sections were prepared and endogenous peroxidase blocked with 0.3% hydrogen peroxide. The sections were then blocked with Protein Block (DAKO, Japan) and stained with anti-ED-1 antibody for 45 min. […] The amount of urinary protein was determined with the DC protein assay kit (Bio-Rad, Hercules, Calif.). […]
Structure (SMILES),MOMA2-positive Cells [1],Total Cells [1],Urinary Protein [2] [mg/day]
"O=C(NC(=O)c1ccc2ncoc2c1)Nc1ccc(C(F)(F)F)cc1 [Compound 82, Benzoxazol-6-yl-N-({[4-(trifluoromethyl)phenyl]amino}carbonyl)carboxamide]",3.2 ± 0.4 × 10^6,4.2 ± 0.4 × 10^6,
"O=C(NC(=O)c1ccc2c(c1)OCO2)Nc1cccc(C(F)(F)F)c1 [Compound 16, 2H-Benzo[3,4-d]1,3-dioxolen-5-yl-N-({[3-(trifluoromethyl)phenyl]amino}carbonyl)carboxamide]",7.5 ± 1.6 × 10^6,8.8 ± 1.5 × 10^6,
"O=C(NC(=O)c1ccc2ncoc2c1)Nc1ccc(Cl)c(Cl)c1 [Compound 80, Benzoxazol-6-yl-N-{[(3,4-dichlorophenyl)amino]carbonyl}carboxamide]",,,162.1 ± 42.6
